# Source: patent publication US20100286082A1, “RIBOSWITCHES AND METHODS AND COMPOSITIONS FOR USE OF AND WITH RIBOSWITCHES” (Yale University, priority 2007, published 2010)
# Tests used:
# [1] = tested on: 17-90 RNA mutant U41; experiment: In-line probing of mutant (U41) 17-90 RNA; assay type: binding, Streptococcus pneumoniae R6; conditions: compared with wild type
# [2] = tested on: 17-90 RNA; experiment: In-line probing of 17-90 RNA (preQ1-II aptamer); assay type: binding, Streptococcus pneumoniae R6; conditions: compound concentrations up to 1 mM
# [3] = tested on: SAH riboswitch of the ahcY 5′-UTR fused to lacZ (WT reporter strain); experiment: In vivo reporter gene expression, ahcY 5′ UTR-lacZ translational fusion; assay type: cell-based, Pseudomonas syringae; conditions: Vogel-Bonner minimal medium supplemented with 250 μM compound
# Method: An in vivo gene control assay was conducted wherein the IGR encompassing the 5′ UTR of the ahcY gene in P. syringae was fused immediately upstream of a lacZ coding sequence. This construct retained the start codon of the ahcY gene, which was fused in frame with the reporter gene ORF. The resulting translational fusion vector was transformed into P. syringae to produce the wild-type (WT) reporter strain. Similarly, a series of mutant reporter strains were constructed that are expected to disrupt or restore aptamer function (FIG. 13A). Transformed P. syringae strains subsequently were grown in either King's medium B (rich) or Vogel-Bonner medium (minimal), and the reporter expression levels of the mutant constructs were compared to the results from the WT reporter construct (FIG. 13B).
# Nucleotides ˜367 to +6 relative to the predicted ahcY translation start site (GenBank accession: NC—004578.1; nucleotides 5,771,072 to 5,771,444) were amplified as a BamHI-HindIII fragment by whole-cell PCR of Pseudomonas syringae pv. tomato str. DC3000. The PCR product was cloned into the translational fusion vector pRA301 (Akakura and Winans, 2002) immediately upstream of the lacZ reporter gene. This reporter vector is stably maintained in pseudomonas since it harbors the origin of replication rep and stability region sta derived from the pseudomonas aeruginosa vector pVS1 (Itoh et al., 1984). […]
# [4] = target: 132 Sc RNA (SAM-IV riboswitch); experiment: In-line probing of 132 Sc RNA (SAM-IV); assay type: binding, Streptomyces coelicolor
# Excerpt: DNA corresponding to the aptamer in the pEZ35 plasmid (above) was amplified by PCR with primers 5′-[…]
# [5] = target: 68 metH RNA; experiment: In-line probing of 68 metH RNA (SAH aptamer); assay type: binding, Dechloromonas aromatica; conditions: in-line probing; read-out: apparent dissociation constant KD
# Method: iii. In-Line Probing Analysis In-line probing assays were carried out essentially as previously described (Soukup and Breaker, 1999). 5′^32P-labeled RNAs were incubated at room temperature for approximately 40 h in 10 μl volumes containing 50 mM Tris-HCl (pH 8.3 at 25° C.), 20 mM MgCl2, 100 mM KCl, and included test compounds at the concentrations indicated. Spontaneous cleavage products were separated by denaturing 10% PAGE, visualized using a Phosphorlmager (Molecular Dynamics), and quantified using SAFA v1.1 software (Das et al., 2005). The amount of RNA cleaved at each nucleotide position was obtained from SAFA analysis, which automatically determines reference nucleotide positions with invariant levels of spontaneous cleavage to correct for different amounts loaded in each lane. Individual band intensities at each modulated site were summed and normalized to obtain values for the fraction of RNA that was structurally modulated, assuming that there was no modulation in the absence of ligand and maximal modulation in the presence of the highest concentration of ligand. Values for the apparent dissociation constant (KD) were determined by fitting the plot of the fraction modulated (F), versus the ligand concentration, [L], at all three indicated modulation sites to the equation F [L]/([L]+KD) using SigmaPlot 9 software (Systat Software, Inc.).
# [6] = target: SAM-I riboswitch 124 yitJ; conditions: cited from earlier work
# [7] = target: SAM-I riboswitch 124 yitJ; experiment: SAM-I riboswitch binding (literature); conditions: ratio of the KD for the compound to that for SAM
# [8] = tested on: SAM-II aptamer 156 metA; conditions: representative of SAM-II aptamers, Lim et al., 2006b; cited from earlier work
# [9] = tested on: 17-90 RNA; experiment: Equilibrium dialysis of 3H-preQ1 with 17-90 RNA; assay type: binding, Streptococcus pneumoniae R6; conditions: excess unlabeled compound added to chamber a after equilibration
# Method: Equilibrium dialysis experiments were preformed with ^3H-preQ1 and the 17-90 RNA construct to confirm ligand binding and the specificity of molecular recognition using a different methodology. For equilibrium dialysis, ^3H-preQ1 was added to chamber a of an equilibrium dialysis apparatus, and excess RNA is added to chamber b. The two chambers are separated by a 5,000 Dalton molecular weight cut off dialysis membrane (FIG. 18A). The solutions were allowed to equilibrate and the fraction of tritium in each chamber was subsequently measured by liquid scintillation counting. […] When ^3H-preQ1 ([…]) is equilibrated without RNA, or with an RNA that lacks the ability to form the P3 stem (1-81 RNA), the ^3H label distributes evenly (b/a ˜1). […]
# A 30 μl mixture containing 50 mM Tris-HCl (pH 8.3 at 23° C.), 20 mM MgCl2, 100 mM KCl, and 1 μM of ^3H-labeled preQ1 was placed in one chamber of a DispoEquilibrium Dialyzer (ED-1, Harvard Bioscience) and the same volume containing the same constituents minus the ^3H-labeled preQ1 was added to the opposing side. When noted, the latter solution also contained either 5 μM 17-90 RNA or 5 μM 1-81 RNA. After equilibrating for 14 hours, a 5 μl aliquot was removed from each side of the apparatus to determine the distribution of ^3H-label in the two chambers by liquid scintillation counting. […]
compound,measurement,setting,value
"Nc1nc(N)c2[nH]cnc2n1 [DAP, 2,6-diaminopurine]",binding by the U41 mutant,[1],essentially the same affinity as wild type
same,binding by 17-90 RNA,[2],near identical KD values
"Nc1ncnc2c1ncn2[C@@H]1O[C@H](CSCC[C@H](N)C(=O)O)[C@@H](O)[C@H]1O [SAH, S-adenosylhomocysteine]",riboswitch-mediated reporter expression,[3],only slightly increases reporter expression
same,Kd,"[4]; in-line probing, 132 Sc RNA, read-out: apparent dissociation constant (KD)",20000 nM
same,KD [compound]/ KD [SAM] SAM-IV,[4]; ratio of the KD for the compound to that for SAM,133
same,Kd,[5],~20 nM
same,Kd,"[6]; calculated previously (Lim et al. 2006), read-out: KD [compound] (nM) SAM-I",400 nM
same,discrimination against SAH,"[6]; representative of SAM-I aptamers, Lim et al., 2006b",~80 fold
same,KD [compound]/ KD [SAM] SAM-I,[7],80
same,discrimination against SAH,[8],more than 1000 fold
Nc1nc2nc[nH]c2c(=O)[nH]1 [guanine],competition with 3H-preQ1 (distribution of 3H label),[9],has no effect on the distribution of ^3H
